Measurements taken from patent publication US4127446A, “Process for producing antibiotics mimosamycin and chlorocarcins A, B and C” (priority 1975, dated 1978).
≈ marks a conversion by molar mass, not a printed value.

Test system: Mycobacterium tuberculosis SMR
Assay: Antimicrobial activity of mimosamycin against tubercle bacilli (Table 4)
Format: cell-based
Conditions: 672 h

COC1=C(C)C(=O)c2cc(=O)n(C)cc2C1=O [Mimosamycin]
MIC: 1.56 µg/mL (≈ 6.69 µM)
